The values that follow come from ChEMBL document CHEMBL1909046, “DrugMatrix in vitro pharmacology data”.

Structures are written as SMILES.

One data set deals with Insulin receptor (Rattus norvegicus, UniProt P15127). The class given is cell membranes, Wistar, Liver, Membrane.
Data set [1] is described as follows: DRUGMATRIX: Glutamate, NMDA, Phencyclidine radioligand binding (ligand: [3H] TCP). The class given is cell membranes, Rattus norvegicus, Wistar, Cerebral cortex, Membrane. The settings on record: Not Active = under 50% inhibition at 10 µM.
Data set [2] in a line: DRUGMATRIX: Glutamate, Kainate radioligand binding (ligand: [3H] Kainic acid). The class given is cell membranes, Rattus norvegicus, Wistar, Brain, Membrane. The conditions noted are these: Not Active = under 50% inhibition at 10 µM.
For data set [3], the target named is T1, 5-hydroxytryptamine receptor 1A (Rattus norvegicus, UniProt P19327). Note: in other assays of this panel Not Active means under 50% inhibition at 10 µM.
T1 sequence (P19327 whole entry): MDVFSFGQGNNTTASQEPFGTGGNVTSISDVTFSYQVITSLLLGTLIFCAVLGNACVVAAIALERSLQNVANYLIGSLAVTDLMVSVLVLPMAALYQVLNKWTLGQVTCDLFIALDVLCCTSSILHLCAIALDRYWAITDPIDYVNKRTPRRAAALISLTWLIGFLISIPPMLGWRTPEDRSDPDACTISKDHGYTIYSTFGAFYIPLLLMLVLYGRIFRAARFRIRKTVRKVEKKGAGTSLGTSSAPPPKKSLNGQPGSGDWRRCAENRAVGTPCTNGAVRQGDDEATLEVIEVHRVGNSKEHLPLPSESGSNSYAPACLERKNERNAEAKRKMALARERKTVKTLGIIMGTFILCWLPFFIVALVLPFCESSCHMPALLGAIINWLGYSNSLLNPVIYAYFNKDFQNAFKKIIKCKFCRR
The class given is cell membranes, CHO-K1, Membrane.

The next data set addresses T2, Cytochrome P450 1A2 (Homo sapiens, UniProt P05177).
T2 sequence (P05177 whole entry): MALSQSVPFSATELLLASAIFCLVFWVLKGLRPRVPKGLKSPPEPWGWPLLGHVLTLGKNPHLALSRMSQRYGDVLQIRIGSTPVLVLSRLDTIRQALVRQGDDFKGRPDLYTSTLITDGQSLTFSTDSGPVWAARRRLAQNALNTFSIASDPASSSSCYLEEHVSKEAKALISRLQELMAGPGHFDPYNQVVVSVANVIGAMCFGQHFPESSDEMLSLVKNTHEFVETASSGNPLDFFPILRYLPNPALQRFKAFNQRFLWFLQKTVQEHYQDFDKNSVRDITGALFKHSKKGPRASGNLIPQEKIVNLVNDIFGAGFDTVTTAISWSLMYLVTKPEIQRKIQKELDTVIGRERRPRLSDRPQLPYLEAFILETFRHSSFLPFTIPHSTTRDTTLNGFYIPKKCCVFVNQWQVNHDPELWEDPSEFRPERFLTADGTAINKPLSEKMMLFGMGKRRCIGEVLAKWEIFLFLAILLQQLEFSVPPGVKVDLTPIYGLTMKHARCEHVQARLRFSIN
The conditions noted are these: bti-tn-5b1-4.

Data set [4] addresses Sigma non-opioid intracellular receptor 1 (Homo sapiens, UniProt Q99720). Nature of the data set: DRUGMATRIX: Sigma1 radioligand binding (ligand: [3H] Haloperidol). The data set is classed as cell membranes, Jurkat, Membrane. The settings on record: jurkat; Not Active = under 50% inhibition at 10 µM.

Insulin receptor, sequence (P15127 27-759 limits assumed): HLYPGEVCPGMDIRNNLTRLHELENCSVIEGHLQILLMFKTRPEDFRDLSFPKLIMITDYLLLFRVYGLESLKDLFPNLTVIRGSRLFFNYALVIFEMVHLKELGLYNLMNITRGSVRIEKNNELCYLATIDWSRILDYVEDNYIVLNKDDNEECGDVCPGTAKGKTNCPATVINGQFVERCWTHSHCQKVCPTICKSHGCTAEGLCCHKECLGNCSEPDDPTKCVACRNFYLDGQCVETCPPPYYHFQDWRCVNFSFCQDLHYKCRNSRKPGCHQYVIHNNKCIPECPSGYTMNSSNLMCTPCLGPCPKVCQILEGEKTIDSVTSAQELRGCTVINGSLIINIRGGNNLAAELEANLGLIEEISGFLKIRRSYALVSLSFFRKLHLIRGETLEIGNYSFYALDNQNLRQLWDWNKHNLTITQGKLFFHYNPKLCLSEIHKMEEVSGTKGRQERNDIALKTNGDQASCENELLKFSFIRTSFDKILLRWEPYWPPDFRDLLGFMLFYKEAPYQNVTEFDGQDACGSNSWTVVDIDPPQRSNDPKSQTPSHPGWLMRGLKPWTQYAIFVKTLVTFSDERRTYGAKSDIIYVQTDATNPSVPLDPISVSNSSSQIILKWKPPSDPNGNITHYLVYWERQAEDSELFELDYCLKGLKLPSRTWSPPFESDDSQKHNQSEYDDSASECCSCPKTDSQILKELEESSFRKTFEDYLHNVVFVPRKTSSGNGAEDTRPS
Insulin receptor, sequence (P15127 764-1383 limits assumed): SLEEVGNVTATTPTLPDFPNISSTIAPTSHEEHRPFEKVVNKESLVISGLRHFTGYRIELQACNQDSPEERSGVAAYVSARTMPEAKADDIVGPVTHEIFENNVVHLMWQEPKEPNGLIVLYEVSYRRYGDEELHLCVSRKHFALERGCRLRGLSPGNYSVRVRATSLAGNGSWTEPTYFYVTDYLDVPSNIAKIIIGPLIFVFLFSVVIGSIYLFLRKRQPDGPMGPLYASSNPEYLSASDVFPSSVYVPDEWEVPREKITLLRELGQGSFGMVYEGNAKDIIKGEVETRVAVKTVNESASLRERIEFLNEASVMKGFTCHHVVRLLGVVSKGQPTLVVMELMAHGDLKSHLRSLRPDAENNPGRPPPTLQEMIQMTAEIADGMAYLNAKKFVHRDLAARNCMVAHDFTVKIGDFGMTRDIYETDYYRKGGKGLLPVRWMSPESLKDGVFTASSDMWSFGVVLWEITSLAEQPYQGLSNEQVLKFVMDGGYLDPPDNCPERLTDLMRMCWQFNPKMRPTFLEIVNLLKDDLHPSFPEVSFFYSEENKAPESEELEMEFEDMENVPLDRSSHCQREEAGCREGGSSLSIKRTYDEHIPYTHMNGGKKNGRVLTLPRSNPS
Sigma non-opioid intracellular receptor 1, sequence (Q99720 whole entry): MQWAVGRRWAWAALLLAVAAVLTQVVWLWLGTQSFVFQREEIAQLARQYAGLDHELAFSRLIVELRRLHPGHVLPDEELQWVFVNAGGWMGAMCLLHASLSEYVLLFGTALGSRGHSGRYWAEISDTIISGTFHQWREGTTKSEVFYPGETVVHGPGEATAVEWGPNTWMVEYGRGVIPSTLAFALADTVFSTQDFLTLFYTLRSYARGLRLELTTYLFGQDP

One may read the IC50 as the midpoint of a concentration-inhibition curve. Usually Ki stands for the equilibrium dissociation constant of an inhibitor or competing ligand from its target. Take `CO[C@H]1[C@@H](O)[C@H](N)[C@@H](O[C@H]2O[C@H]([C@H](C)N)CC[C@H]2N)[C@H](O)[C@@H]1N(C)C(=O)CN` [ASTROMICIN]: the IC50 entry (against Insulin receptor; in data set [1]; in data set [2]; in data set [3] (cho-k1); on Cytochrome P450 1A2; in data set [4]) was “Not Active” in each case. Also, the Ki result (in data set [1]; in data set [2]; at Cytochrome P450 1A2) was “Not Active” throughout.
Regarding `[N-]=[N+]=CC(=O)OC[C@H](N)C(=O)O` [AZASERINE], the IC50 result (on Insulin receptor; in data set [1]; in data set [2]; in data set [3] (cho-k1); on Cytochrome P450 1A2; in data set [4]) was “Not Active” in each case. Moreover, the Ki entry (in data set [1]; in data set [2]; at Cytochrome P450 1A2) was “Not Active” each time.
Turning to `CC[C@H]1OC(=O)[C@H](C)[C@@H](O[C@H]2C[C@@](C)(OC)[C@@H](O)[C@H](C)O2)[C@H](C)[C@@H](O[C@@H]2O[C@H](C)C[C@H](N(C)C)[C@H]2O)[C@](C)(O)C[C@@H](C)CN(C)[C@H](C)[C@@H](O)[C@]1(C)O` [AZITHROMYCIN], the IC50 entry (against Insulin receptor; in data set [1]; in data set [2]; in data set [3] (cho-k1); on Cytochrome P450 1A2; in data set [4]) was “Not Active” in each case. Besides, the Ki result (in data set [1]; in data set [2]; at Cytochrome P450 1A2) was “Not Active” each time.
On to `CC(C)(C)c1ccc(S(=O)(=O)/C=C/C#N)cc1` [BAY-11-7085], for which the IC50 entry (on Insulin receptor; in data set [1]; in data set [2]; in data set [3] (cho-k1); at Cytochrome P450 1A2; in data set [4]) was “Not Active” in each case. The Ki entry (in data set [1]; in data set [2]; on Cytochrome P450 1A2) was “Not Active” throughout.
Take `CCc1oc2ccccc2c1C(=O)c1cc(Br)c(O)c(Br)c1` [BENZBROMARONE]: the IC50 result (against Insulin receptor; in data set [1]; in data set [2]; in data set [3] (cho-k1); on Cytochrome P450 1A2; in data set [4]) was “Not Active” throughout. The Ki result (in data set [1]; in data set [2]; at Cytochrome P450 1A2) was “Not Active” throughout.
For `O=c1cc(-c2ccccc2)oc2ccc3ccccc3c12` [BETA-NAPHTHOFLAVONE], the IC50 entry (against Insulin receptor; in data set [1]; in data set [2]; in data set [3] (cho-k1); against Cytochrome P450 1A2; in data set [4]) was “Not Active” in each case. The Ki entry (in data set [1]; in data set [2]; on Cytochrome P450 1A2) was “Not Active” each time.
As for `CC(C)C[C@H]1C(=O)N2CCC[C@H]2[C@]2(O)O[C@](NC(=O)[C@@H]3C=C4c5cccc6[nH]c(Br)c(c56)C[C@H]4N(C)C3)(C(C)C)C(=O)N12` [BROMOCRIPTINE], the IC50 result on Insulin receptor is “Not Active”; in data set [1], “Not Active”; in data set [2], “Not Active”; in data set [3] (read-out: IC50) it was 5.64 nM; on Cytochrome P450 1A2, “Not Active”; in data set [4] it was “Not Active”. Further, the Ki entry in data set [1] was “Not Active”; in data set [2], “Not Active”; in data set [3] (read-out: Ki), 3.22 nM; at Cytochrome P450 1A2, “Not Active”.
Turning to `CS(=O)(=O)OCCCCOS(C)(=O)=O` [BUSULFAN], the IC50 entry (at Insulin receptor; in data set [1]; in data set [2]; in data set [3] (cho-k1); at Cytochrome P450 1A2; in data set [4]) was “Not Active” throughout. For the same molecule, the Ki result (in data set [1]; in data set [2]; on Cytochrome P450 1A2) was “Not Active” throughout.
As for `O=C(/C=C/c1ccc(O)c(O)c1)OCCc1ccccc1` [CAFFEIC ACID PHENETHYL ESTER], the IC50 entry (at Insulin receptor; in data set [1]; in data set [2]; in data set [3] (cho-k1); on Cytochrome P450 1A2; in data set [4]) was “Not Active” throughout. For the same molecule, the Ki result (in data set [1]; in data set [2]; on Cytochrome P450 1A2) was “Not Active” each time.
`NC(=O)N1c2ccccc2C=Cc2ccccc21` [CARBAMAZEPINE]: the IC50 result (against Insulin receptor; in data set [1]; in data set [2]; in data set [3] (cho-k1); on Cytochrome P450 1A2; in data set [4]) was “Not Active” each time. The Ki entry (in data set [1]; in data set [2]; on Cytochrome P450 1A2) was “Not Active” throughout.
On to `CCOC(=O)n1ccn(C)c1=S` [CARBIMAZOLE], for which the IC50 result (against Insulin receptor; in data set [1]; in data set [2]; in data set [3] (cho-k1); at Cytochrome P450 1A2; in data set [4]) was “Not Active” throughout. The Ki entry (in data set [1]; in data set [2]; at Cytochrome P450 1A2) was “Not Active” in each case.
Take `Oc1ccccc1O` [CATECHOL]: the IC50 entry (at Insulin receptor; in data set [1]; in data set [2]; in data set [3] (cho-k1); against Cytochrome P450 1A2; in data set [4]) was “Not Active” in each case. Also, the Ki result (in data set [1]; in data set [2]; on Cytochrome P450 1A2) was “Not Active” each time.
In the case of `CO[C@@]1(NC(=O)CSCC#N)C(=O)N2C(C(=O)O)=C(CSc3nnnn3C)CS[C@@H]21` [CEFMETAZOLE], the IC50 entry (against Insulin receptor; in data set [1]; in data set [2]; in data set [3] (cho-k1); at Cytochrome P450 1A2; in data set [4]) was “Not Active” each time. The Ki entry (in data set [1]; in data set [2]; on Cytochrome P450 1A2) was “Not Active” throughout.
As to `CN(C(=O)CCCOc1ccc2[nH]c(=O)ccc2c1)C1CCCCC1` [CILOSTAMIDE], the IC50 entry (on Insulin receptor; in data set [1]; in data set [2]; in data set [3] (cho-k1); against Cytochrome P450 1A2; in data set [4]) was “Not Active” each time. Also, the Ki result (in data set [1]; in data set [2]; at Cytochrome P450 1A2) was “Not Active” in each case.
On to `CC(C)(Oc1ccc(C2CC2(Cl)Cl)cc1)C(=O)O` (stereo not given) [CIPROFIBRATE], for which the IC50 result (on Insulin receptor; in data set [1]; in data set [2]; in data set [3] (cho-k1); against Cytochrome P450 1A2; in data set [4]) was “Not Active” in each case. Besides, the Ki entry (in data set [1]; in data set [2]; on Cytochrome P450 1A2) was “Not Active” throughout.
Regarding `Nc1nc(Cl)nc2c1ncn2[C@H]1C[C@H](O)[C@@H](CO)O1` [CLADRIBINE], the IC50 entry (at Insulin receptor; in data set [1]; in data set [2]; in data set [3] (cho-k1); against Cytochrome P450 1A2; in data set [4]) was “Not Active” throughout. Moreover, the Ki result (in data set [1]; in data set [2]; at Cytochrome P450 1A2) was “Not Active” throughout.
